The values below come from patent US7998989B2, “2-Imino-1,3-thiazoline-based compounds and T-type calcium channel inhibitors containing the same” (Korea Institute of Science and Technology, priority 2007, dated 2011).

Counter-ions that a name gives are not always drawn.

T1 sequence (O43497 whole entry): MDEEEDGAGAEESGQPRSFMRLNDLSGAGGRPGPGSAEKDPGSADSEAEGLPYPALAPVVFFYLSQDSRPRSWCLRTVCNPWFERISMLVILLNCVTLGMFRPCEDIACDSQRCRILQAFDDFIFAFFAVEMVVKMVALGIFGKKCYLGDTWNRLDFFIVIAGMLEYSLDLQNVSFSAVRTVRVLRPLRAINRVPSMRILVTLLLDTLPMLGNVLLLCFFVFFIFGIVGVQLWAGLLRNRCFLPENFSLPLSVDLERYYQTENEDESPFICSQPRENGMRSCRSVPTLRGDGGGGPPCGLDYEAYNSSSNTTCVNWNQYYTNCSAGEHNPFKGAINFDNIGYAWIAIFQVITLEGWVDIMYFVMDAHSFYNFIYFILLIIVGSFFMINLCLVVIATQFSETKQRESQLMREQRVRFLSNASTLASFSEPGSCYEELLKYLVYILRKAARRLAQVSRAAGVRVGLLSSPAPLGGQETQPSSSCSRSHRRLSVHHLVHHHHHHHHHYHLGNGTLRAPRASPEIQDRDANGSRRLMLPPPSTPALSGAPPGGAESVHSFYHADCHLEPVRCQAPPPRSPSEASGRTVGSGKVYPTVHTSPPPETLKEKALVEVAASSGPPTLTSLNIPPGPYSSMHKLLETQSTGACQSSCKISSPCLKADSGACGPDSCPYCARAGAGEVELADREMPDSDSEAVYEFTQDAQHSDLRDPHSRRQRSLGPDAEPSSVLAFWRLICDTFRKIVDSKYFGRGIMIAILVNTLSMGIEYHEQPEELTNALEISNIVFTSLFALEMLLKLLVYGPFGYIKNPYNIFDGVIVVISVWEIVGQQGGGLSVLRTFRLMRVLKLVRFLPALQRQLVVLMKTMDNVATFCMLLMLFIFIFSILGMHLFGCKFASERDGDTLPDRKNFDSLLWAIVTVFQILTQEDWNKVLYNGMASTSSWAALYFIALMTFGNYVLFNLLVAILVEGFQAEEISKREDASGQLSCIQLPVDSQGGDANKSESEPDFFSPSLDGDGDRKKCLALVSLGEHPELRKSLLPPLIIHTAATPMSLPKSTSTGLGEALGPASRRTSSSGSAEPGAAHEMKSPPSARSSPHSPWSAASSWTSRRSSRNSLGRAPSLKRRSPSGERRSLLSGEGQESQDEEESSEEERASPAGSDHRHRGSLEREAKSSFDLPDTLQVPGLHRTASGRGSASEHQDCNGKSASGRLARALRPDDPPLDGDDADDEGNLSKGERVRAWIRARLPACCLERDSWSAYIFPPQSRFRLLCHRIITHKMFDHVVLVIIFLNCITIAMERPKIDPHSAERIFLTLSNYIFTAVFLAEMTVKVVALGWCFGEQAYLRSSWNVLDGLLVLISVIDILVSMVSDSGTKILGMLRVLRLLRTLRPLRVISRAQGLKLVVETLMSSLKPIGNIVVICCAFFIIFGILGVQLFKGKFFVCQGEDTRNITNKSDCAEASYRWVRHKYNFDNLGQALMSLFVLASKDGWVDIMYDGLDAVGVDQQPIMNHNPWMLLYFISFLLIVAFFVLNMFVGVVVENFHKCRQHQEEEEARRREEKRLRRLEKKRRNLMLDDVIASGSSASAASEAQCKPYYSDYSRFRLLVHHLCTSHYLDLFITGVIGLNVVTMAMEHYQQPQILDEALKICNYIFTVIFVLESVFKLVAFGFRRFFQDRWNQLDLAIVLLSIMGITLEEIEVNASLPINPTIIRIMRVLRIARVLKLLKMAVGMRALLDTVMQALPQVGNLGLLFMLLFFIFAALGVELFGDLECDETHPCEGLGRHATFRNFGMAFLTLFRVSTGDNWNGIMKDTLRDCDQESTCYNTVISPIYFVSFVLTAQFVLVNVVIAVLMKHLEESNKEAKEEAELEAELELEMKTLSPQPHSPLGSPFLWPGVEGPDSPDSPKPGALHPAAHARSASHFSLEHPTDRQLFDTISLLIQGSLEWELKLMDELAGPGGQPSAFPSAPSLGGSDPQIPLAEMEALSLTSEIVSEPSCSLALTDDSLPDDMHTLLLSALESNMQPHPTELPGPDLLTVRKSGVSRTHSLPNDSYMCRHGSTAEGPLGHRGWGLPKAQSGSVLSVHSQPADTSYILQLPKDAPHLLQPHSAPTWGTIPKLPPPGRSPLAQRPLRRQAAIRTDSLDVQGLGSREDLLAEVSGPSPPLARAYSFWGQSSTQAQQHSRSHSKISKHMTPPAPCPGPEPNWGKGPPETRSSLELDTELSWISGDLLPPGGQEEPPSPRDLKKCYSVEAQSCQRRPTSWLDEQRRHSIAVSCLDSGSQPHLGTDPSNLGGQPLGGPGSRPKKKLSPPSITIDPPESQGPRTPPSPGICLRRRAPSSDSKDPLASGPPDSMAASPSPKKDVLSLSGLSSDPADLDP

The first series has as its target T1, α1G T-type calcium channel (Homo sapiens, UniProt O43497).
T1 construct: host or cells: HEK293
Nature of the series: Assay for % inhibiting activity against T-type calcium channel using FDSS6000 (fluo-3 calcium imaging, KCl activation). Format: cell-based. The note with it: 10 μM; HEK293 cells stably expressing α1G T-type calcium channel and Kir2.1; compounds of the examples. On the procedure: In the present invention, in order to examine an efficient inhibitor against the T-type calcium channel, a primary assay for T-type calcium channel inhibiting activity was conducted by a high-efficient assay using FDSS6000, wherein mammal HEK293 cell lines (originated from human kidney carcinoma cells) that specifically express α1G of the T-type calcium channel was used for primary assay. Through the primary assay, compounds that show meaningful inhibition effects were selected. The selected compounds were used in a second assay for T-type calcium channel inhibiting activity using an electrophysiological whole cell patch clamp method, wherein mammal HEK293 cell lines (originated from human kidney carcinoma cells) that specifically express α1G of the T-type calcium channel was used for the second assay. Mibefradil, which had been developed as a T-type calcium channel inhibitor, was used as a reference.
At 12-24 hours before being used for this assay, cells of HEK293 cell line (α1G cell line: KCTC 10519BP, Korean Collection for Type Cultures), which stably express α1G T-type calcium channel and Kir2.1, were sub-cultured in a poly-L-lysine treated 96-well plate with the density of 4×10^4 per well using a 96-well cell dispenser (Titertek). On the day of assay, the 96-well plate to which the cells were attached was washed three times with HEPES buffer solution (150 mM of NaCl, 5 mM of KCl, 1 mM of MgCl2, 2 mM of CaCl2, 10 mM of HEPES, 10 mM of glucose; pH 7.4) using a 96-well plate automatic washing device (Bio Tek), then reacted with HEPES buffer solution containing 5 μM fluo-3/AM and 0.001% Pluronic F-127 at room temperature for 1 hour, to label with fluorescent dye, and then further washed two times with HEPES buffer solution.
Thereafter, at 10 minutes before the measurement using device FDSS6000, washing with HEPES buffer solution containing 10 mM CaCl2 was conducted once more, and the final volume was adjusted to 81 μl. Besides the above 96-well plate containing the cells, two additional drug 96-well plates were provided, wherein the 96-well plates contained an inhibiting drug and KCl (final concentration: 75 mM) for activating the T-type calcium channel, respectively. Since most of cell-based HTS devices are equipped with a liquid application system for injection of drug, but have no liquid sucking system, the inhibiting drug to be tested and KCl were respectively provided at a five-times higher concentration in 10 mM CaCl2 HEPES buffer solution at the amount of 27 μl, diluted by five-times at the final cell plate volume of 135 μl, and then used in this test. The concrete method of measurement using FDSS6000 was as follows. After recording the reference value of 20 seconds, the change of intracellular Ca^2+ concentration that was induced by treatment of the inhibiting drug to be tested for 75 seconds followed by administration of KCl was measured, wherein the percentage (%) inhibition effect of the test drug, through estimating the area of ratio value of 340/380 in the control without treatment of the test drug, was 100%. As a reference drug, 10 μM mibefradil was used.
For accurate calcium imaging, the light source of 4 xenon lamps in FDSS6000 were radiated to selectively expose the cells to the excitation wavelength (340 nm and 380 nm) by a computer-controlled filter wheel. Data was obtained at intervals of 1.23 seconds. The emitter fluorescence light inflowed through a long-pass filter was obtained as an average 340/380 ratio value for each well in the 96-wells by using a CCD camera and a digital fluorescence analyzer in FDSS6000. All image data and analyses were obtained by using a FDSS6000-exclusive program from Hamamatsu Photonics.
The obtained results are shown in Table 2 (the results from the compounds according to the examples of the present invention) and Table 3 (the results from the compounds according to the comparative example where R6 is a phenyl group) [FDSS (% inhibition) 10 μM].
Turning to `CCCCc1ccc(NC(=O)CC2CSC(=NC34CC5CC(CC(C5)C3)C4)N2C)cc1.Cl` (stereo not shown) [KHG24409], the “FDSS (% inhibition)/10uM” value was 57.43%.
Same read-out and setting: for `Cl.O=C(CC1CSC(=NC23CC4CC(CC(C4)C2)C3)N1C1CC1)Nc1ccc2c(c1)OCO2` (stereo not shown) [KHG24804, [2-(1-adamantylimino)-3-cyclopropyl-1,3-thiazolidine-4-yl]-N-(3,4-dioxymethylenephenyl)-acetamide hydrochloride] the value was 44.67%; for `CN1C(=NC23CC4CC(CC(C4)C2)C3)SCC1CC(=O)Nc1ccccc1.Cl` (stereo not shown) [KHG24412], 56.4%; for `CC(C)N1C(=NC23CC4CC(CC(C4)C2)C3)SCC1CC(=O)Nc1ccc2c(c1)OCO2.Cl` (stereo not shown) [KHG24838, [2-(1-adamantylimino)-3-isopropyl-1,3-thiazolidine-4-yl]-N-(3,4-dioxymethylenephenyl)-acetamide hydrochloride], 53.33%.
On the same count and under the same terms, for `CCCN1C(=NC23CC4CC(CC(C4)C2)C3)SCC1CC(=O)Nc1ccc2c(c1)OCO2.Cl` (stereo not shown) [KHG24837, [2-(1-adamantylimino)-3-n-propyl-1,3-thiazolidine-4-yl]-N-(3,4-dioxymethylenephenyl)-acetamide hydrochloride] the value was 68.43%; for `CCCCN1C(=NC23CC4CC(CC(C4)C2)C3)SCC1CC(=O)Nc1ccc2c(c1)OCO2.Cl` (stereo not shown) [KHG24803, [2-(1-adamantylimino)-3-n-butyl-1,3-thiazolidine-4-yl]-N-(3,4-dioxymethylenephenyl)-acetamide hydrochloride], 66.47%.

The series is the same for the next values; noted with them: 10 μM; HEK293 cells stably expressing α1G T-type calcium channel and Kir2.1; compounds of the examples; hydrochloride.
`Cc1ccc(NC(=O)CC2CSC(=NC34CC5CC(CC(C5)C3)C4)N2C)c(Cl)c1.Cl` (stereo not shown) [KHG24413]: the “FDSS (% inhibition)/10uM” value amounted to 62.08%.
Regarding `Cc1ccc(NC(=O)CC2CSC(=NC3CCCCC3)N2C2CCCCC2)cc1.Cl` (stereo not shown) [KHG24535, (2-cyclohexylimino-3-cyclohexyl-1,3-thiazolidine-4-yl)-N-(4-methylphenyl)-acetamide hydrochloride], the “FDSS (% inhibition)/10uM” value turned out to be 40.31%.
On to `CCc1ccc(NC(=O)CC2CSC(=NC3CCCC3)N2C)cc1.Cl` (stereo not shown) [KHG24093, (2-cyclopentylimino-3-methyl-1,3-thiazolidine-4-yl)-N-(4-ethylphenyl)-acetamide hydrochloride], for which the “FDSS (% inhibition)/10uM” value is 34.77%.
`CN1C(=NC23CC4CC(CC(C4)C2)C3)SCC1CC(=O)Nc1cc(Cl)cc(Cl)c1.Cl` (stereo not shown) [KHG24410]: the “FDSS (% inhibition)/10uM” value was 64.09%.

The series is the same for the next values; noted with them: HEK293, 10 μM; HEK293 cells stably expressing α1G T-type calcium channel and Kir2.1; compounds of the examples; read-out: FDSS (% inhibition)/10uM.
With `CN1C(=NC2CCCCCC2)SCC1CC(=O)Nc1ccc(N)cc1` (stereo not shown) [KHG24448, (2-cycloheptylimino-3-methyl-1,3-thiazolidine-4-yl)-N-(4-aminophenyl)-acetamide hydrochloride], the inhibition at 10 µM turned out to be 47.4%.
Same read-out and setting: for `Cl.O=C(CC1CSC(=NC2CCCCC2)N1C1CCCCC1)Nc1ccc(Cl)cc1` (stereo not shown) [KHG24266, [2-cyclohexylimino-3-cyclohexyl-1,3-thiazolidine-4-yl]-N-(4-chlorophenyl)-acetamide hydrochloride] the value was 33.6%.
As for `CN1C(=NC2CCCCC2)SCC1CC(=O)Nc1ccc2c(c1)OCO2` (stereo not shown) [KHG24086, (2-cyclohexylimino-3-methyl-1,3-thiazolidine-4-yl)-N-(3,4-methylenedioxyphenyl)-acetamide hydrochloride], the inhibition at 10 µM is 30.5%.
Take `CCc1ccc(NC(=O)CC2CSC(=NC3CCCC3)N2C)cc1.Cl` (stereo not shown) [KHG24092, (2-cyclopentylimino-3-methyl-1,3-thiazolidine-4-yl)-N-(4-ethylphenyl)-acetamide hydrochloride]: the inhibition at 10 µM was found to be 43.1%.
In the case of `CN1C(=NC2CCCCCC2)SCC1C(=O)Nc1cc(C(F)(F)F)cc(C(F)(F)F)c1` (stereo not shown) [KHG24630, (2-cycloheptylimino-3-methyl-1,3-thiazolidine-4-yl)-N-(3,5-ditrifluoromethylphenyl)-carboxamide], the inhibition at 10 µM amounted to 56.8%.
On the same count and under the same terms, for `CC(C)c1ccc(NC(=O)CC2CSC(=NC3CCCCC3)N2C)cc1` (stereo not shown) [KHG24110, (2-cyclohexylimino-3-methyl-1,3-thiazolidine-4-yl)-N-(4-isopropylphenyl)-acetamide hydrochloride] the value was 53.6%.
Turning to `CN1C(=NC2CCCCC2)SCC1CC(=O)Nc1cc(F)ccc1F` (stereo not shown) [KHG24087, (2-cyclohexylimino-3-methyl-1,3-thiazolidine-4-yl)-N-(2,5-difluorophenyl)-acetamide hydrochloride], the inhibition at 10 µM came out at 35.4%.
`CN1C(=NC2CCCCCC2)SCC1CC(=O)NCc1ccc(N)cc1` (stereo not shown) [KHG24449, (2-cycloheptylimino-3-methyl-1,3-thiazolidine-4-yl)-N-(4-aminobenzyl)-acetamide hydrochloride]: the inhibition at 10 µM worked out at 40.5%.
Still for that read-out and setting: for `CN1C(=NC2CCCCC2)SCC1CC(=O)Nc1cc(C(F)(F)F)cc(C(F)(F)F)c1` (stereo not shown) [KHG24529, (2-cyclohexylimino-3-methyl-1,3-thiazolidine-4-yl)-N-(3,5-ditrifluoromethylphenyl)-acetamide hydrochloride] the value was 58.2%; for `Cc1ccc(NC(=O)C2CSC(=NC3CCCCCC3)N2C)cc1` (stereo not shown) [KHG24628, (2-cycloheptylimino-3-methyl-1,3-thiazolidine-4-yl)-N-(4-methylphenyl)-carboxamide], 42.6%.

Tested on in a further series: not given
Assay: not given
Conditions: not given
A word on the melting point: it is the temperature of the solid-liquid transition. Compound `CN1C(=NC2CCCCCC2)SCC1C(=O)Nc1ccc(F)cc1` (stereo not shown) [KHG24631, (2-cycloheptylimino-3-methyl-1,3-thiazolidine-4-yl)-N-(4-fluorophenyl)-carboxamide] showed a melting point of 169.6 °C.
The compound `Cl.O=C(CC1CSC(=NC2CCCCC2)N1Cc1ccccc1)Nc1ccc(Oc2ccccc2)cc1` (stereo not shown) came in with a melting point of 209.5 °C.
Same read-out and setting: for `Cc1ccc(NC(=O)CC2CSC(=NC3CCCCC3)N2C2CCCCC2)cc1Cl.Cl` (stereo not shown) the value was 173 °C.
Compound `Cc1ccc(NC(=O)CC2CSC(=NC3CCCC3)N2C)c(F)c1.Cl` (stereo not shown) gave a melting point of 189 to 190 °C.
Same read-out and setting: for `Br.CCCCc1ccc(NC(=O)C2CSC(=NC3CCCCCC3)N2C)cc1` (stereo not shown) the value was 240.8 °C.
On the same count and under the same terms, for `CCN1C(=NC2CCCCC2)SCC1CC(=O)Nc1ccc(Cl)cc1.Cl` (stereo not shown) the value was 218.3 °C; for `CN1C(=NC2CC2)SCC1CC(=O)Nc1ccc(F)cc1Cl.Cl` (stereo not shown), 237 to 239 °C; for `Br.CN1C(=NC2CCCCCC2)SCC1C(=O)Nc1ccc(Cl)cc1` (stereo not shown), 286.5 °C.
The compound `CCCCN1C(=NC23CC4CC(CC(C4)C2)C3)SCC1CC(=O)Nc1cc(CF)cc(CF)c1.Cl` (stereo not shown) showed a melting point of 252 °C.
`CN1C(=NC2CC2)SCC1CC(=O)Nc1ccc(F)cc1F.Cl` (stereo not shown) showed a melting point of 245 to 246 °C.
Compound `Br.CC(C)c1ccc(NC(=O)C2CSC(=NC3CCCCCC3)N2C)cc1` (stereo not shown) had a melting point of 282.2 °C.
Same read-out and setting: for `COc1ccc(NC(=O)CC2C(C)SC(=NC3CCCCC3)N2C)cc1` (stereo not shown) [KHG24481, (2-cyclohexylimino-3,5-dimethyl-1,3-thiazolidine-4-yl)-N-(4-methoxyphenyl)-acetamide] the value was 258 to 260 °C.
`Cc1ccc(NC(=O)CC2CSC(=NC3CCCCC3)N2C2CC2)cc1.Cl` (stereo not shown) registered a melting point of 216.4 °C.
On the same count and under the same terms, for `CN1C(=NC2CCCCCC2)SCC1C(=O)Nc1cc(Cl)ccc1F` (stereo not shown) [KHG24686, (2-cycloheptylimino-3-methyl-1,3-thiazolidine-4-yl)-N-(5-chloro-2-fluorophenyl)-carboxamide] the value was 241.2 °C.
